Source: patent US20140039053A1, “THERAPEUTIC AGENT FOR DIASTOLIC CONGESTIVE HEART FAILURE” (Mochida Pharmaceutical Co., Ltd., priority 2011, published 2014)

Legend:
[1] = tested on: diastolic congestive heart failure patients; experiment: Echocardiographic evaluation of diastolic function in diastolic congestive heart failure patients, EPA-E-administered vs non-administered group (Example 2); assay type: in vivo, human; conditions: target cases E′ <8 cm/s (18 cases)
[2] = tested on: diastolic congestive heart failure patients; experiment: as above; assay type: in vivo, human
Experimental: Diastolic congestive heart failure patients were targeted and divided into an EPA-E-administered group and an EPA-E-non-administered group. The EPA-E-administered group received the oral administration of EPA-E (trade name: Epadel; manufactured by Mochida Pharmaceutical Co., Ltd.) at a daily dose of 1800 mg for 6 months. The EPA-E-non-administered group received neither EPA nor its derivative during the test period. Another hypotensive or antilipidemic agent was not administered to any of these groups during the test period. The diastolic function of each patient was evaluated by echocardiography before the start of the test and after the completion of the test (6 months later). The evaluation items used were 1) a ratio of a peak filling velocity of early diastolic transmitral flow (a peak filling velocity of mitral inflow during early diastole: E) to a peak filling velocity of atrial systolic transmitral flow (a peak filling velocity of mitral inflow during atrial contraction: A) (E/A ratio), 2) the time required for the peak filling velocity of mitral inflow during early diastole to reach zero (deceleration time: DT), 3) an early diastolic mitral annulus velocity (E), and 4) an E/E′ ratio. The degree of improvement in these indexes was confirmed for each case corresponding to 1) an E/A ratio<1.0, 2) DT>250 msec, 3) E′<8 cm/s, or 4) an E/E′ ratio>15 as an index for cardiac diastolic dysfunction. The rate of change was determined as an average of % change from the value (defined as 100) before the start to the value after 6 months in each case.

[3] = printed as reduction (improvement), average of % change per case, before start to 6 months, 1800 mg/day oral
[4] = printed as rise (improvement), average of % change per case, before start to 6 months, 1800 mg/day oral

With `CC/C=C\C/C=C\C/C=C\C/C=C\C/C=C\CCCC(=O)OCC` [EPA-E, icosapentaenoic acid ethyl ester] the “E′ (early diastolic mitral annular velocity), mean after 6 months” value ([1]; EPA-E 1800 mg/day oral, 6 months) was 4.539 cm/s, the “E′ (early diastolic mitral annular velocity), mean before start” value ([1]; baseline before EPA-E 1800 mg/day oral) was 4.483 cm/s and the “DT, rate of change” value [2, 3] was 10.9% reduction. For the same compound, the “E/E′ ratio, rate of change” value [2, 3] was 27.4% reduction, the “E/A ratio, rate of change” value [2, 4] was 3.7% rise and the “E′, rate of change” value [2, 4] was 2.3% rise. For the same compound, the “DT (deceleration time), mean after 6 months” value ([2]; target cases DT >250 msec (6 cases), EPA-E 1800 mg/day oral, 6 months) was 241.7 ms, the “DT (deceleration time), mean before start” value ([2]; target cases DT >250 msec (6 cases), baseline before EPA-E 1800 mg/day oral) was 271.3 ms and the “E/A ratio, mean after 6 months” value ([2]; target cases E/A ratio <1.0 (14 cases), EPA-E 1800 mg/day oral, 6 months) was 0.692. For the same compound, the “E/A ratio, mean before start” value ([2]; target cases E/A ratio <1.0 (14 cases), baseline before EPA-E 1800 mg/day oral) was 0.669, the “E/E′ ratio, mean after 6 months” value ([2]; target cases E/E′ ratio >15 (4 cases), EPA-E 1800 mg/day oral, 6 months) was 13.14 and the “E/E′ ratio, mean before start” value ([2]; target cases E/E′ ratio >15 (4 cases), baseline before EPA-E 1800 mg/day oral) was 18.09.
